Test results from US11840686B2, “Modulation of prekallikrein (PKK) expression” (Ionis Pharmaceuticals, Inc., priority 2013, dated 2023).
Strand notation (5' to 3'): a small letter for the sugar, then the base; units joined by * are phosphorothioate-linked, units joined directly phosphodiester-linked; [ ] holds rarer units or linkages, { } end groups; capitals alone tell only the bases. e = 2'-O-(2-methoxyethyl) (MOE); [5mC] = 5-methylcytosine; d = 2'-deoxy (DNA)

Experiments:
[1] = tested on: human PKK mRNA; test: Dose-dependent antisense inhibition of human PKK in HepaRG cells, 0.19-5.00 uM (Example 5); assay type: cell-based; conditions: HepaRG cells; for percent inhibition of PKK mRNA, 0.19 μM: 0.19 μM antisense oligonucleotide; for percent inhibition of PKK mRNA, 0.56 μM: 0.56 μM antisense oligonucleotide; for percent inhibition of PKK mRNA, 1.67 μM: 1.67 μM antisense oligonucleotide; for percent inhibition of PKK mRNA, 5.00 μM: 5.00 μM antisense oligonucleotide
Summary of the method: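 HepaRG cells (20,000/well) were electroporated with antisense oligonucleotide at 0.19, 0.56, 1.67 and 5.00 μM and treated for about 16 hours. PKK mRNA was quantified by qRT-PCR with primer probe set RTS3454, normalised to RIBOGREEN total RNA, and IC50 was derived per oligonucleotide.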

[2] = tested on: human PKK mRNA; test: Antisense inhibition of human PKK mRNA in HepaRG cells, 5,000 nM (Example 2); assay type: cell-based; conditions: HepaRG cells, electroporation with 5,000 nM antisense oligonucleotide, approximately 24 hours, PKK mRNA by RT-PCR (RTS3454), relative to untreated control cells; Table 5 experiment
Summary of the method: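 HepaRG cells, 20,000 per well, were electroporated with 5,000 nM MOE gapmer (phosphorothioate, 5-methylcytosine) and incubated about 24 hours. PKK mRNA was quantified by qRT-PCR with primer probe set RTS3454, normalized to RIBOGREEN total RNA, and expressed as percent inhibition versus untreated controls.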

[3] = electroporation, approximately 16 hours, Table 35
[4] = 4 point dose response, Table 35
[5] = electroporation, approximately 16 hours, Table 39
[6] = electroporation, approximately 16 hours, Table 40
[7] = 4 point dose response, Table 40
[8] = electroporation, approximately 16 hours, Table 36
[9] = electroporation, approximately 16 hours, Table 38

547273 (antisense eT*eG*eA*eG*eT*d[5mC]*dT*d[5mC]*dT*dT*dG*dT*d[5mC]*dA*d[5mC]*eT*eT*eA*eA*eA) [compound 547273]
percent inhibition of PKK at 0.19 μM [1, 3]: 44% | percent inhibition of PKK at 0.56 μM [1, 3]: 69% | percent inhibition of PKK at 1.67 μM [1, 3]: 87% | percent inhibition of PKK at 5.00 μM [1, 3]: 87% | percent inhibition of PKK at 5.00 μM ([1]; electroporation, approximately 16 hours, Table 41): 83% | percent inhibition of PKK at 0.19 0μM ([1]; 0.19 0μM, electroporation, approximately 16 hours, Table 41): 0% | percent inhibition of PKK at 0.56 0μM ([1]; 0.56 0μM, electroporation, approximately 16 hours, Table 41): 60% | percent inhibition of PKK at 1.67 1μM ([1]; 1.67 1μM, electroporation, approximately 16 hours, Table 41): 82% | IC50 [1, 4]: 200 nM | IC50 ([1]; 4 point dose response, Table 41): 600 nM | % inhibition [2]: 93%

547275 (antisense eT*eT*eG*eG*eA*dG*dG*dT*dG*dA*dG*dT*d[5mC]*dT*d[5mC]*eT*eT*eG*eT*e[5mC]) [compound 547275]
percent inhibition of PKK at 0.19 μM [1, 5]: 34% | percent inhibition of PKK at 0.56 μM [1, 5]: 66% | percent inhibition of PKK at 1.67 μM [1, 5]: 82% | percent inhibition of PKK at 5.00 μM [1, 5]: 95% | IC50 ([1]; 4 point dose response, Table 39): 300 nM | percent inhibition of PKK mRNA, 0.19 μM [1]: 56% | percent inhibition of PKK mRNA, 0.56 μM [1]: 16% | percent inhibition of PKK mRNA, 1.67 μM [1]: 80% | percent inhibition of PKK mRNA, 5.00 μM [1]: 86% | IC50 ([1]; 0.19-5.00 μM): 1200 nM | % inhibition [2]: 87%

547276 (antisense e[5mC]*eA*eA*eT*eT*dG*d[5mC]*dT*dT*d[5mC]*dT*dT*dG*dG*dA*eG*eG*eT*eG*eA) [compound 547276]
percent inhibition of PKK at 0.19 μM [1, 3]: 35% | percent inhibition of PKK at 0.56 μM [1, 3]: 44% | percent inhibition of PKK at 1.67 μM [1, 3]: 71% | percent inhibition of PKK at 5.00 μM [1, 3]: 77% | IC50 [1, 4]: 600 nM | percent inhibition of PKK mRNA, 0.19 μM [1]: 6% | percent inhibition of PKK mRNA, 0.56 μM [1]: 3% | percent inhibition of PKK mRNA, 1.67 μM [1]: 53% | percent inhibition of PKK mRNA, 5.00 μM [1]: 68% | IC50 ([1]; 0.19-5.00 μM): 2200 nM | % inhibition [2]: 93%

547277 (antisense e[5mC]*eA*e[5mC]*eA*eA*dT*dT*dG*d[5mC]*dT*dT*d[5mC]*dT*dT*dG*eG*eA*eG*eG*eT) [compound 547277]
percent inhibition of PKK at 0.19 μM [1, 6]: 2% | percent inhibition of PKK at 0.56 μM [1, 6]: 32% | percent inhibition of PKK at 1.67 μM [1, 6]: 34% | percent inhibition of PKK at 5.00 μM [1, 6]: 62% | IC50 [1, 7]: 2800 nM | % inhibition [2]: 75%

547288 (antisense e[5mC]*eA*eT*eA*eG*dA*dG*dT*dT*dG*dA*dG*dT*d[5mC]*dA*eG*eA*e[5mC]*eA*eT) [compound 547288]
percent inhibition of PKK at 0.19 μM [1, 6]: 0% | percent inhibition of PKK at 0.56 μM [1, 6]: 0% | percent inhibition of PKK at 1.67 μM [1, 6]: 0% | percent inhibition of PKK at 5.00 μM [1, 6]: 38% | IC50 [1, 7]: > 5000 nM | % inhibition [2]: 80%

547293 (antisense e[5mC]*eA*eT*e[5mC]*eT*dG*dG*d[5mC]*dA*dG*dT*dA*dT*dT*dG*eG*eG*e[5mC]*eA*eT) [compound 547293]
percent inhibition of PKK at 0.19 μM [1, 8]: 53% | percent inhibition of PKK at 0.56 μM [1, 8]: 57% | percent inhibition of PKK at 1.67 μM [1, 8]: 80% | percent inhibition of PKK at 5.00 μM [1, 8]: 86% | IC50 ([1]; 4 point dose response, Table 36): 200 nM | percent inhibition of PKK mRNA, 0.19 μM [1]: 0% | percent inhibition of PKK mRNA, 0.56 μM [1]: 45% | percent inhibition of PKK mRNA, 1.67 μM [1]: 65% | percent inhibition of PKK mRNA, 5.00 μM [1]: 70% | IC50 ([1]; 0.19-5.00 μM): 1300 nM | % inhibition [2]: 92%

547294 (antisense e[5mC]*eT*e[5mC]*eA*eT*d[5mC]*dT*dG*dG*d[5mC]*dA*dG*dT*dA*dT*eT*eG*eG*eG*e[5mC]) [compound 547294]
percent inhibition of PKK at 0.19 μM [1, 9]: 28% | percent inhibition of PKK at 0.56 μM [1, 9]: 59% | percent inhibition of PKK at 1.67 μM [1, 9]: 87% | percent inhibition of PKK at 5.00 μM [1, 9]: 86% | IC50 ([1]; 4 point dose response, Table 38): 400 nM | percent inhibition of PKK mRNA, 0.19 μM [1]: 4% | percent inhibition of PKK mRNA, 0.56 μM [1]: 70% | percent inhibition of PKK mRNA, 1.67 μM [1]: 84% | percent inhibition of PKK mRNA, 5.00 μM [1]: 91% | IC50 ([1]; 0.19-5.00 μM): 600 nM | % inhibition [2]: 85%
